In EPA's ToxValDB 9.5:
Converted amounts (≈) assume the structure as drawn. Values belong to the compound of their own block, whether it stands above or below them.

Columns and labels:
Rattus norvegicus = conditions: for LD50: acute, mortality
Oryctolagus sp. = conditions: for NOAEL: reproduction developmental
Plant = conditions: not reported; seedling emergence
Tagia sp. = conditions: for LC50: acute
Pleurozium sp. = conditions: acute; duration: 72 hours; growth
Bovidae = conditions: oral, diet; for LEL: no effects
Homo sapiens = conditions: clinical; duration: 15 days; inhalation; clinical signs
Daphnia magna = conditions: chronic/long-term; duration: 21 days; reproduction
Cyprinus carpio = conditions: acute; duration: 96 hours; mortality
Apis mellifera = conditions: acute, mortality
Lymnaea stagnalis = conditions: chronic/long-term; duration: 50 days
Gallus gallus = conditions: for LEL: subchronic, oral, diet, no effects
Bibionidae = conditions: chronic/long-term; duration: 28 days; seedling emergence
Folsomia candida = conditions: chronic/long-term; duration: 28 days; mortality
Oncorhynchus mykiss = conditions: for LC50: duration: 96 hours, mortality; for NOEC: chronic/long-term
Meleagris sp. = conditions: subchronic, oral, feed, no effects
Hypoaspis aculeifer = conditions: chronic/long-term; duration: 14 days; mortality
Pontoscolex corethrurus = conditions: chronic/long-term; growth
Typhlodromus pyri = test: LR50; higher = less toxic; conditions: acute, mortality
Ovis sp. = conditions: subchronic, oral, diet
Colinus virginianus = conditions: for LC50 / LD50: acute, oral; for LC50: diet
Anas platyrhynchos = conditions: oral, mortality
Pimephales promelas = conditions: chronic/long-term; duration: 36 days; mortality
Leuciscus idus = conditions: chronic/long-term; duration: 66 days; mortality
Danio rerio = conditions: acute; duration: 96 hours; mortality
Anatidae = conditions: short-term; duration: 28 days; oral; feed; no effects
Anser anser = conditions: short-term; duration: 28 days; oral; feed; no effects
Equus caballus = conditions: short-term; duration: 21 days; no effects
Mus musculus = conditions: acute; inhalation; mortality
[1] = subchronic, duration: 42 days, oral, diet, M/F, Not specified, no effects

SMILES: O=C(O)Cn1cncn1 [1,2,4-Triazole-1-acetic acid]
- NOAEL (Rattus norvegicus; reproduction developmental, body weight): 100 mg/kg-day
- NOAEL (Oryctolagus sp.; body weight): 100 mg/kg-day

SMILES: O=C(Nc1ccc([N+](=O)[O-])cc1)Nc1ccc([N+](=O)[O-])cc1 [4,4'-Dinitrodiphenylurea]
- NOEC (Plant): 2.9 mg/kg
- LC50 (Tagia sp.; duration: 14 days, no effects): > 1000 mg/kg
- NOEC (Pleurozium sp.): 0.042 µg/L

- LEL (Bovidae; subchronic, duration: 56 days, F): 350 mg/kg-day
SMILES: C[C@H]1O[C@H](O[C@H]2[C@H](O)[C@@H](O)[C@@H](O[C@@H]([C@H](O)[C@@H](O)C=O)[C@H](O)CO)O[C@@H]2CO)[C@H](O)[C@@H](O)[C@@H]1N[C@H]1C=C(CO)[C@@H](O)[C@H](O)[C@H]1O [Acarbose]

SMILES: CC(=O)O [Acetic acid]
- NOAEC (Homo sapiens): 10 mg/m3
- LC50 (Tagia sp.; mortality): > 1000 mg/kg
- NOEC (Daphnia magna): 22.7 mg/L
- LC50 (Cyprinus carpio): 43.8 µg/mL (≈ 729 µM)
- LD50 (Apis mellifera; dermal): > 96 µg/piece
- LD50 (Apis mellifera; oral, unspecified): > 110 µg/piece
- NOAEL (Oryctolagus sp.; oral, mortality): 16 mg/kg-day

SMILES: O=[N+]([O-])[O-].O=[N+]([O-])[O-].O=[N+]([O-])[O-].[Al+3] [Aluminum nitrate]
- NOEC (Lymnaea stagnalis): 0.1 mg/L

- LEL (Gallus gallus; duration: 43 days, M/F, Chicken): 625 mg/kg-day
SMILES: CCCc1ncc(C[n+]2ccccc2C)c(N)n1.Cl.[Cl-] [Amprolium hydrochloride]
- NOEC (Tagia sp.; reproductive, reproduction): 100 mg/kg
- NOEC (Bibionidae): 101 mg/kg

SMILES: O=C(O)c1ccccc1 [Benzoic acid]
- LEL (Sus scrofa; repeat dose other, F, Large White x Landrace, clinical chemistry): 20000 mg/kg-day
- LEL (Sus scrofa; repeat dose other, oral, diet, Not specified, histopathology: nonneoplastic): 10000 mg/kg-day
- LEL (Sus scrofa; [1]): 5000 mg/kg-day
- LEL (Sus scrofa; subchronic, duration: 84 days, oral, diet, Not specified, organ weight): 20000 mg/kg-day
- NOEC (Folsomia candida): 143 mg/kg
- LC50 (Oncorhynchus mykiss; acute): > 9 µg/mL
- LD50 (Rattus norvegicus; oral): > 1700 mg/kg-day
- NOAEL (Rattus norvegicus; chronic, duration: 2 years, oral, diet, other): 500 mg/kg-day
- NOAEL (Rattus norvegicus; chronic, duration: 16 weeks, oral, histopathology: nonneoplastic): 500 mg/kg-day
- LEL (Gallus gallus; duration: 36 days, M, Chicken): 1500 mg/kg-day
- LEL (Meleagris sp.; duration: 42 days, F): 1500 mg/kg
- NOEC (Hypoaspis aculeifer): 1000 mg/kg
- NOEC (Pontoscolex corethrurus): 384 mg/kg

SMILES: C[Se]CCC(O)C(=O)O (stereo unspecified) [Butanoic acid, 2-hydroxy-4-(methylseleno)-]
- LEL (Sus scrofa; [1]): 5 mg/kg-day
- LEL (Gallus gallus; duration: 35 days, M/F): 5 mg/kg-day
- LEL (Gallus gallus; duration: 42 days, M/F): 5 mg/kg-day
- LEL (Meleagris sp.; duration: 42 days, M/F, But big 6): 5 mg/kg

SMILES: [Ca+2].[S-]SSS[S-] [Calcium polysulfide]
- LC50 (Tagia sp.; mortality): > 1000 mg/kg
- LD50 (Apis mellifera; duration: 48 hours, oral, unspecified): > 69.8 µg/piece
- LC50 (Oncorhynchus mykiss; acute): 2.67 µg/mL
- LD50 (Rattus norvegicus; oral): 1340 mg/kg-day
- NOAEL (Rattus norvegicus; subchronic, duration: 90 days, oral, clinical chemistry): 150 mg/kg-day
- LR50 (Typhlodromus pyri; duration: 7 days): 113 g/ha

SMILES: O=c1[nH]c(=O)[nH]c(=O)[nH]1 [Cyanuric acid]
- LEL (Sus scrofa; acute, duration: 3 days, oral, diet, Not specified, no effects): 400 mg/kg-day
- NOAEL (Ovis sp.; duration: 77 days, body weight): 600 mg/kg-day
- LEL (Oncorhynchus mykiss; acute, duration: 3 days, oral, capsule, no effects): 390 mg/kg-day
- NOAEL (Rattus norvegicus; chronic, duration: 2 years, oral, drinking water, histopathology: nonneoplastic): 154 mg/kg-day

SMILES: CC[N+](CC)(CC(=O)Nc1c(C)cccc1C)Cc1ccccc1.O=C([O-])c1ccccc1 [Denatonium benzoate]
- LC50 (Colinus virginianus; mortality): 778 mg/kg-day
- LD50 (Colinus virginianus; mortality): 196 mg/kg
- LC50 (Anas platyrhynchos; short-term, feed): 842 mg/kg-day
- NOEC (Daphnia magna): 5 mg/L

SMILES: CNC(=O)/C(=N/OC)c1ccccc1COc1cc(C)ccc1C [Dimoxystrobin]
- NOEC (Pimephales promelas): 16 µg/L
- NOEC (Leuciscus idus): 15 µg/L
- NOEC (Oncorhynchus mykiss; duration: 28 days, body weight): 10 µg/L
- NOEC (Oncorhynchus mykiss; duration: 97 days, biomass): 1 µg/L

SMILES: ClC1=C(Cl)C2(Cl)C3C(Cl)C=CC3C1(Cl)C2(Cl)Cl (stereo unspecified) [Heptachlor]
- LEL (Sus scrofa; subchronic, duration: 78 days, oral, Not specified, histopathology: nonneoplastic): 2 mg/kg-day
- NOAEL (Bovidae; subchronic, F): 6 mg/kg-day
- LOAEL (Gallus gallus; repeat dose other, reproduction): 0.01 mg/kg-day

SMILES: OC[C@H]1OC(O[C@H]2[C@H](O)[C@@H](CO)OC(O[C@H]3[C@H](O)[C@@H](CO)OC(O)[C@@H]3O)[C@@H]2O)[C@H](O)[C@@H](O)[C@@H]1O (stereo partly specified) [Laminaran]
- LD50 (Colinus virginianus; mortality): > 1700 mg/kg-day
- LEL (Colinus virginianus; chronic, mortality): > 170 mg/kg-day
- LC50 (Danio rerio): > 71.3 µg/mL
- LD50 (Apis mellifera; dermal): > 100 µg/piece
- LD50 (Apis mellifera; oral, unspecified): > 119 µg/piece
- LD50 (Rattus norvegicus; oral): > 2000 mg/kg-day
- NOAEL (Rattus norvegicus; subchronic, duration: 90 days, oral, no effects): 1000 mg/kg-day
- NOEC (Pontoscolex corethrurus): 262 mg/kg
- LR50 (Typhlodromus pyri): 115 g/ha

- LEL (Ovis sp.; gross pathology): ≥ 2.5 mg/kg-day
- LEL (Bovidae; short-term, duration: 28 days): 0.15 mg/kg-day
SMILES: CO[C@@H]1[C@@H](OC)[C@H](C)[C@@](O)(CC(=O)O)O[C@H]1[C@H](C)[C@H]1O[C@@]2(CC[C@@](C)([C@H]3CC[C@@](C)([C@@H]4O[C@@H]([C@H]5O[C@](C)(O)[C@H](C)C[C@@H]5C)C[C@@H]4O[C@@H]4C[C@H](OC)[C@@H](OC)[C@H](C)O4)O3)O2)C[C@H](O)[C@H]1C.N [Maduramicin ammonium]
- LEL (Sus scrofa; repeat dose other, oral, diet, Not specified, mortality): 37.5 mg/kg-day
- NOEL (Rattus norvegicus; chronic, duration: 2 years, oral, diet): 0.16 mg/kg-day
- NOAEL (Rattus norvegicus; chronic, duration: 2 years, oral, diet, M/F, organ weight): 0.12 mg/kg-day
- NOAEL (Rattus norvegicus; reproduction developmental, M/F, body weight): 0.1 mg/kg-day
- LOAEL (Oryctolagus sp.; short-term, duration: 2 weeks, oral, diet, mortality): 0.075 mg/kg-day
- NOAEL (Canidae; acute, duration: 3 hours, M/F, Beagle, no effects): ≥ 0.1 mg/kg-day

SMILES: C#CCOc1ccc(CCNC(=O)C(OCC#C)c2ccc(Cl)cc2)cc1OC (stereo unspecified) [Mandipropamid]
- LC50 (Colinus virginianus; mortality): > 2140 mg/kg-day
- NOEL (Colinus virginianus; reproduction developmental): 83.6 mg/kg-day
- LD50 (Anas platyrhynchos; acute, unspecified): > 1000 mg/kg-day
- LD50 (Rattus norvegicus; oral): > 5000 mg/kg-day
- NOEL (Rattus norvegicus; chronic, body weight): 20 mg/kg-day
- NOAEL (Rattus norvegicus; chronic, duration: 2 years, body weight): 15.2 mg/kg-day
- NOAEL (Canidae; subchronic, duration: 90 days, oral, Dog Other, body weight): 25 mg/kg-day

- LEL (Anatidae): 25 mg/kg
- LEL (Anser anser): 25 mg/kg
- LEL (Equus caballus): 0.25 mg/kg-day
- LEL (Meleagris sp.; duration: 12 weeks): 25 mg/kg
- LEL (Oryctolagus sp.; subchronic, duration: 42 days, oral, diet, M/F, no effects): 25 mg/kg-day
SMILES: CO[C@@H]1[C@@H](O)[C@H](C)[C@@](O)(CC(=O)[O-])O[C@H]1[C@H](C)[C@H]1O[C@@]2(CC[C@@](C)([C@H]3CC[C@@](C)([C@@H]4O[C@@H]([C@H]5O[C@](C)(O)[C@H](C)C[C@@H]5C)C[C@@H]4O[C@H]4CC[C@H](OC)[C@@H](C)O4)O3)O2)C[C@H](O)[C@H]1C.[Na+] [Semduramicin sodium]
- NOAEL (Rattus norvegicus; chronic, duration: 2 years, oral, diet, clinical chemistry): 0.125 mg/kg-day
- NOAEL (Canidae; chronic, duration: 12 months, Dog Other, histopathology: nonneoplastic): 0.3 mg/kg-day

SMILES: O=S(=O)(F)F [Sulfuryl fluoride]
- LC50 (Mus musculus): 1.67 µg/mL (≈ 16.4 µM)
- LC50 (Danio rerio): 0.89 µg/mL (≈ 8.72 µM)
- NOAEL (Rattus norvegicus; chronic, duration: 2 years, histopathology: nonneoplastic): 20 mg/kg-day
- NOEL (Rattus norvegicus; short-term, duration: 2 days, F, Fischer 344): 300 mg/kg-day
- NOAEL (Rattus norvegicus; subchronic, duration: 90 days, inhalation, histopathology: nonneoplastic): 100 mg/kg-day
